pIC50: −log10 of the molar value. Bounds are passed on as bounds.

The target in the experiment is T1, T cell receptor alpha variable 4 (Homo sapiens, UniProt A0A0B4J268).
T1 sequence (A0A0B4J268 whole entry): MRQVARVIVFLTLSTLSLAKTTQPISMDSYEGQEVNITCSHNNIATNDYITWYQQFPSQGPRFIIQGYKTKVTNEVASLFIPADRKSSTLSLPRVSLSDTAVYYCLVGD
The term pIC50 denotes the IC50 on a negative log10 scale, so that one unit is a factor of ten. The molecule `CC1=CC([N+](=O)[O-])=CC(/C=N/NC(=O)C2COc3ccccc3O2)C1=O` (configuration not stated) [N'-[(E)-(5-methyl-3-nitro-6-oxocyclohexa-2,4-dien-1-ylidene)methyl]-2,3-dihydro-1,4-benzodioxine-3-carbohydrazide] had a pIC50 of under 4.03. The molecule `COC1=CC(=O)C(/C=N/NC(=O)c2ccncc2)C(OC)=C1[N+](=O)[O-]` (configuration not stated) [MLS000673335] gave a pIC50 of under 4.03. As for `O=C1NC(=O)N(Cc2ccco2)C(=O)C1=CNNC(=O)c1ccccc1` [N'-[(E)-[1-(furan-2-ylmethyl)-2,4,6-tris(oxidanylidene)-1,3-diazinan-5-ylidene]methyl]benzohydrazide], the figure is under 4.03; as for `Cc1cc(C(=O)N/N=C/C2C=C(Br)C=C([N+](=O)[O-])C2=O)c2ccccc2n1` (configuration not stated) [MLS000585468], under 4.03. As for `O=C(O)c1ccccc1NS(=O)(=O)c1ccc(N=NCc2ccc(O)c(O)c2)c([N+](=O)[O-])c1` [SMR001238114], the figure is 4.49.

`CCc1n[nH]c(=S)n1N=CC1C=C(OC)C=C([N+](=O)[O-])C1=O` (configuration not stated) [(6E)-6-[[(3-ethyl-5-sulfanylidene-1H-1,2,4-triazol-4-yl)amino]methylidene]-4-methoxy-2-nitro-1-cyclohexa-2,4-dienone] showed a pIC50 of 4.73. Molecule `CCOC(=O)c1c(C)[nH]c(C(=O)N/N=C/C2C=C([N+](=O)[O-])C=CC2=O)c1C` (configuration not stated) [ethyl 2,4-dimethyl-5-[[[(E)-(3-nitro-6-oxocyclohexa-2,4-dien-1-ylidene)methyl]amino]carbamoyl]-1H-pyrrole-3-carboxylate] showed a pIC50 of under 4.03. For `O=C1NC(=O)N(Cc2ccco2)C(=O)C1=CNNC(=O)c1ccccc1O` [N'-[(E)-[1-(furan-2-ylmethyl)-2,4,6-tris(oxidanylidene)-1,3-diazinan-5-ylidene]methyl]-2-oxidanyl-benzohydrazide], the pIC50 was under 4.03.

In turn, `COc1ccc(CC(=O)N/N=C/C2C=C([N+](=O)[O-])C=C(Br)C2=O)cc1` (configuration not stated) showed a pIC50 of under 4.03. As for `O=C1C([N+](=O)[O-])=CC(Cl)=CC1C=NNC(=S)Nc1ccc(S(=O)(=O)N2CCOCC2)cc1` (configuration not stated) [1-[[(E)-(3-chloro-5-nitro-6-oxo-1-cyclohexa-2,4-dienylidene)methyl]amino]-3-[4-(4-morpholinylsulfonyl)phenyl]thiourea], the figure is under 4.03; as for `CC1=CC([N+](=O)[O-])=CC(/C=N/n2c(C)nc3ccccc3c2=O)C1=O` (configuration not stated) [MLS000778735], under 4.03.

Regarding `Cc1cc(C(=O)N/N=C/C2C=C(Cl)C=C([N+](=O)[O-])C2=O)c2ccccc2n1` (configuration not stated) [N'-[(E)-(3-chloranyl-5-nitro-6-oxidanylidene-cyclohexa-2,4-dien-1-ylidene)methyl]-2-methyl-quinoline-4-carbohydrazide], the negative logarithm of the IC50 (pIC50) was under 4.03. As for `O=C1CC(=O)c2c(O)cc(O)c(O)c2C1=O` [4,5,7,8-tetrahydroxy-1,2-naphthoquinone], the figure is under 4.03; as for `COC1=CC([N+](=O)[O-])=CC(/C=N/NC(=O)c2cc(C)nc3ccccc23)C1=O` (configuration not stated), under 4.03; as for `Oc1c(Br)cc(CC=Nc2cc(O)c3cccnc3c2O)cc1Br` [7-[2-(3,5-dibromo-4-hydroxyphenyl)ethylamino]quinoline-5,8-dione], 4.73.

The molecule `C=CCN1C(=O)/C(=N\NC(=O)CNC(=O)/C=C/c2ccco2)c2ccccc21` [(E)-N-[1-Allyl-2-oxo-1,2-dihydro-indol-(3Z)-ylidene-hydrazinocarbonylmethyl]-3-furan-2-yl-acrylamide] gave a pIC50 of under 4.03.

In turn, `O=C(N/N=C/C1C=C(Cl)C=C([N+](=O)[O-])C1=O)c1ccc2c(c1)OCO2` (configuration not stated) [N'-[(E)-(3-chloranyl-5-nitro-6-oxidanylidene-cyclohexa-2,4-dien-1-ylidene)methyl]-1,3-benzodioxole-5-carbohydrazide] had a pIC50 of under 4.03. As for `CC1=CC(/C=N/n2c(COc3ccccc3C)nc3ccccc3c2=O)C(=O)C([N+](=O)[O-])=C1` (configuration not stated), the figure is under 4.03.

The molecule `O=C(NN=CC1=CC(=O)C(=O)CC1)NN=CC1=CC(=O)C(=O)CC1` [1,3-bis[[(Z)-(3-hydroxy-4-oxocyclohexa-2,5-dien-1-ylidene)methyl]amino]urea] showed a pIC50 of 5.99.

`O=C(N/N=C/C1C=C([N+](=O)[O-])C=CC1=O)c1cccc(N2CCCC2=O)c1` (configuration not stated) showed a negative logarithm of the IC50 (pIC50) of under 4.03. Under `O=Nc1[nH]c(=O)c(CC(=O)c2ccccc2)nc1NO` [SMR000539633] stands under 4.03; under `Oc1ccc(CN=Nc2ncnc3c2ncn3Cc2ccccc2)cc1O` [(4Z)-2-oxidanyl-4-[[2-[9-(phenylmethyl)purin-6-yl]hydrazinyl]methylidene]cyclohexa-2,5-dien-1-one], under 4.03. Take `CN1C(=O)C(C=NNC(=O)c2cc3ccccc3cc2O)c2ccccc21` (configuration not stated) [MLS000912237]: the pIC50 is under 4.03. Under `Cc1cc(=O)oc2cc(OCC(=O)N/N=C/C3C=C([N+](=O)[O-])C=CC3=O)ccc12` (configuration not stated) [MLS000588734] stands under 4.03; under `CC(NNC(=O)c1ccc(-c2ccccc2)cc1)=C1C(=O)c2ccccc2C1=O` [N-[(E)-1-(1,3-dioxoinden-2-yl)ethylideneamino]-4-phenylbenzamide], under 4.03; under `O=C(NC(C(=O)NN=CC1C=C([N+](=O)[O-])C=CC1=O)c1n[nH]c(=O)c2ccccc12)c1ccccc1` (configuration not stated) [N-[2-[2-[(E)-(3-nitro-6-oxidanylidene-cyclohexa-2,4-dien-1-ylidene)methyl]hydrazinyl]-2-oxidanylidene-1-(4-oxidanylidene-3H-phthalazin-1-yl)ethyl]benzamide], under 4.03. As for `O=[N+]([O-])c1cc(Br)c(O)c(CN=Nc2nnnn2-c2cccc3ccccc23)c1` [(6E)-2-bromo-6-[[2-(1-naphthalen-1-yltetrazol-5-yl)hydrazinyl]methylidene]-4-nitrocyclohexa-2,4-dien-1-one], the figure is under 4.03; as for `O=C(N/N=C/C1C=C([N+](=O)[O-])C=C([N+](=O)[O-])C1=O)/C(=C\c1cccs1)NC(=O)c1ccccc1` (configuration not stated) [SMR000207704], under 4.03.

`CC1=CC(/C=N/n2c(CO[N-][C+](C)c3ccccc3)nc3ccccc3c2=O)C(=O)C([N+](=O)[O-])=C1` (configuration not stated) had a pIC50 of under 4.03. Under `O=C1C=CC([N+](=O)[O-])=CC1C=NNC(=S)Nc1ccc(Cl)cc1Cl` (configuration not stated) [MLS000777079] stands under 4.03; under `O=C(N/N=C/C1C=C([N+](=O)[O-])C=CC1=O)/C(=C\c1cccs1)NC(=O)c1ccccc1` (configuration not stated) [MLS000332530], under 4.03.

For the molecule `Cc1ccccc1C(=O)Nc1cccc(C(=O)N/N=C/C2C=C(Cl)C=C([N+](=O)[O-])C2=O)c1` (configuration not stated) [N-(3-{[(2E)-2-(5-chloro-2-hydroxy-3-nitrobenzylidene)hydrazino]carbonyl}phenyl)-2-methylbenzamide], the pIC50 was under 4.03. Under `O=C(N/N=C/C1C=C(Cl)C=C([N+](=O)[O-])C1=O)c1cccc(S(=O)(=O)N2CCOCC2)c1` (configuration not stated) [MLS002155639] stands under 4.03; under `O=C(CNC(=O)c1ccccc1Br)N/N=C/C1C=C([N+](=O)[O-])C=C(Br)C1=O` (configuration not stated) [2-bromanyl-N-[2-[2-[(E)-(5-bromanyl-3-nitro-6-oxidanylidene-cyclohexa-2,4-dien-1-ylidene)methyl]hydrazinyl]-2-oxidanylidene-ethyl]benzamide], under 4.03; under `CCOC(=O)C1C(CC)=Nc2ccccc2N=C1NC(=O)Nc1ccc(Cl)c(Cl)c1` (configuration not stated), 4.97. As for `Cc1ccc(C(=O)Nc2nc(C(C)(C)C)cs2)s1` [N-(4-tert-butyl-2-thiazolyl)-5-methyl-2-thiophenecarboxamide], the figure is under 4.03.

`Nc1nnc(CC(=O)N/N=C/C2C=C([N+](=O)[O-])C=CC2=O)s1` (configuration not stated) [2-(5-amino-1,3,4-thiadiazol-2-yl)-N'-[(E)-(3-nitro-6-oxo-1-cyclohexa-2,4-dienylidene)methyl]acetohydrazide] gave a negative-log IC50 (pIC50) of under 4.03.

On to `O=C(CSc1nc2ccccc2s1)N/N=C/C1C=C([N+](=O)[O-])C=CC1=O` (configuration not stated) [MLS000777065], for which the pIC50 is under 4.03.

In turn, `O=C1C([N+](=O)[O-])=CC=CC1/C=N/n1cnc2scc(-c3ccc(Cl)cc3)c2c1=O` (configuration not stated) [SMR000314525] showed a pIC50 of under 4.03.

`O=C1NC(=O)N(CCc2ccccc2)C(=O)C1=CNNC(=O)c1ccccc1O` [2-hydroxy-N'-[(E)-[2,4,6-trioxo-1-(2-phenylethyl)-1,3-diazinan-5-ylidene]methyl]benzohydrazide] had a pIC50 of under 4.03. Under `O=C(N/N=C/C1C=CC=C([N+](=O)[O-])C1=O)c1cccs1` (configuration not stated) stands under 4.03; under `Cc1c(NC(=S)NN=CC2C=C([N+](=O)[O-])C=CC2=O)c(=O)n(-c2ccccc2)n1C` (configuration not stated) [SMR000415003], under 4.03. Under `CCC(NNC(=O)c1ccccc1O)=C1C(=O)NC(=O)N(Cc2ccccc2)C1=O` [2-hydroxy-N'-[(1E)-1-[2,4,6-trioxo-1-(phenylmethyl)-1,3-diazinan-5-ylidene]propyl]benzohydrazide] stands under 4.03. With `Cc1cc2cc(CNC(=O)c3ccc(C)c([N+](=O)[O-])c3)ccc2[nH]1` [MLS000724615], the negative-log IC50 (pIC50) was under 4.03. Under `COc1ccc(C(=O)CC=NNC(=O)c2ccc(Cl)cc2)cc1` [SMR000499516] stands under 4.03; under `Cc1cc(C(=O)NN=CC2C=C(Cl)C=C([N+](=O)[O-])C2=O)[nH]n1` (configuration not stated) [SMR000414694], under 4.03. Turning to `O=C1C=CC([N+](=O)[O-])=CC1/C=N/n1c(COc2ccccc2)nc2ccccc2c1=O` (configuration not stated) [3-[[(E)-(3-nitro-6-oxocyclohexa-2,4-dien-1-ylidene)methyl]amino]-2-(phenoxymethyl)quinazolin-4-one], the pIC50 is under 4.03.

Values taken from BindingDB's records for doi:10.7270/Q2WQ02FK (The Scripps Research Institute Molecular Screening Center, 2013).
